Reference: ChEMBL document CHEMBL3774354, “Discovery of Selective Histone Deacetylase 6 Inhibitors Using the Quinazoline as the Cap for the Treatment of Cancer” (J Med Chem, 2016)
The source made the active and inactive calls. No cut-off for these calls is given here.

What was measured:
[1] = biological target: T1, Protein deacetylase HDAC6 (Homo sapiens, UniProt Q9UBN7)
T1 sequence (Q9UBN7 whole entry): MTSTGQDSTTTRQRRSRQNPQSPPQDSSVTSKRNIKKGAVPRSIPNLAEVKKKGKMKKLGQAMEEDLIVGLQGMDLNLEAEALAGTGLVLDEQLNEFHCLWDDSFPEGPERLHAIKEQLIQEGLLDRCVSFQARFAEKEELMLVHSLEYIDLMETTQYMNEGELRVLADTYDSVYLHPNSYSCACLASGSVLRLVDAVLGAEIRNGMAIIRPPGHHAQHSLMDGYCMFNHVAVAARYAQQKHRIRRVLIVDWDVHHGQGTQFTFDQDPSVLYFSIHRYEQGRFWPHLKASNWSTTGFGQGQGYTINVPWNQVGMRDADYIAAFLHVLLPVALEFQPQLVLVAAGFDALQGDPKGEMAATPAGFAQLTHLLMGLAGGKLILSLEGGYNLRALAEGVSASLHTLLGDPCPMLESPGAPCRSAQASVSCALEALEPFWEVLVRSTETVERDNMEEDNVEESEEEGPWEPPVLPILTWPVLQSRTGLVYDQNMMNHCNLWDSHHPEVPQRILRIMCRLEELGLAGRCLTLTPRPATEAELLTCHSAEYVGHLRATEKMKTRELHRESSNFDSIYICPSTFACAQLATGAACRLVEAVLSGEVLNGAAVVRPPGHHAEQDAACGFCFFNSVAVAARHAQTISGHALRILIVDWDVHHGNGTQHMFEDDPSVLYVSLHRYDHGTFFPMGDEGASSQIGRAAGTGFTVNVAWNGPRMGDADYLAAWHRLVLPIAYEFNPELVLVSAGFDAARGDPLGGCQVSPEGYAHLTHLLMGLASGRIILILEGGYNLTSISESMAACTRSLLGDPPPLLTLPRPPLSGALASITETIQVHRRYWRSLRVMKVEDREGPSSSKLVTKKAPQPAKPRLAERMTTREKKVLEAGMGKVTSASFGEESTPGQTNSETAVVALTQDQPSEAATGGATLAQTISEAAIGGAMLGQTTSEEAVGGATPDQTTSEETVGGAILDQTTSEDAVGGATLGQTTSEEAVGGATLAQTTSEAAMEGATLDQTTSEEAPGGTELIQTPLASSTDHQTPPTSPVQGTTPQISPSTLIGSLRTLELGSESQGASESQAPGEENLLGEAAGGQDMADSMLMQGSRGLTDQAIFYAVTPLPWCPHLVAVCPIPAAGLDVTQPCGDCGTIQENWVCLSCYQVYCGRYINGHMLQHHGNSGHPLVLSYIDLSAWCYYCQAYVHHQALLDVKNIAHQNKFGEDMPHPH
Description: Inhibition of human recombinant HDAC6 using AMC labeled AC-peptide as substrate incubated for 1 hr by fluorescence analysis

[2] = biological target: T2, Histone deacetylase 8 (Homo sapiens, UniProt Q9BY41)
T2 sequence (Q9BY41 whole entry): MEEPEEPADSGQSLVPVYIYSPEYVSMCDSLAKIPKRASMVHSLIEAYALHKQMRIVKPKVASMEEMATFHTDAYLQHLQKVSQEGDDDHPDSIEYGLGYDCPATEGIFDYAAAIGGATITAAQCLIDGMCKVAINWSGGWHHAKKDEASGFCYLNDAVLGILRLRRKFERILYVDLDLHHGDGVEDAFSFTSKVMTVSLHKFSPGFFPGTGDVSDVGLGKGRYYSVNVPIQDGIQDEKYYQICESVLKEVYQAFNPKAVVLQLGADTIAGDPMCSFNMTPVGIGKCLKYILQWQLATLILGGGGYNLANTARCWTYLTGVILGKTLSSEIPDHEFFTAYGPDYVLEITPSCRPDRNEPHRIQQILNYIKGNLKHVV
Description: Inhibition of human recombinant HDAC8 using AMC labeled AC-peptide as substrate incubated for 1 hr by fluorescence analysis

[3] = biological target: Histone deacetylase 1 (Homo sapiens, UniProt Q13547)
Description: Inhibition of human recombinant HDAC1 using AMC labeled AC-peptide as substrate incubated for 1 hr by fluorescence analysis

[4] = test system: HeLa; experiment: Induction of histone H3 acetylation in human HeLa cells incubated for 6 hrs by cytoblot assay; assay type: functional, cell-based
[5] = test system: HeLa; experiment: Antiproliferative activity against human HeLa cells after 72 hrs by MTT assay; assay type: functional, cell-based
[6] = test system: A-375; experiment: Antiproliferative activity against human A375 cells after 72 hrs by MTT assay; assay type: functional, cell-based; conditions: A-375, 72 h
[7] = biological target: T1, Protein deacetylase HDAC6; experiment: Inhibition of HDAC6 in human HeLa cells assessed as induction of tubulin acetylation incubated for 6 hrs by cytoblot assay; assay type: cell-based
[8] = test system: Mus musculus; experiment: Toxicity in Balb/c nude mouse xenografted with human HCT116 cells assessed as death at 50 mg/kg, ip q2d for 9 days; assay type: organism-based, HCT-116; conditions: in vivo, 216 h
[9] = test system: MV4-11; experiment: Antitumor activity against human MV4-11 cells xenografted in NOD/SCID mouse assessed as tumor mass change at 50 mg/kg, ip q2d for 12 days; assay type: functional
[10] = Antitumor activity against human HCT116 cells xenografted in Balb/c nude mouse assessed as tumor mass change at 100 mg/kg, po q2d for 8 days; assay type: functional, HCT-116
[11] = test system: Mus musculus; experiment: Toxicity in Balb/c nude mouse xenografted with human HCT116 cells assessed as death at 100 mg/kg, po q2d for 8 days; assay type: organism-based, HCT-116; conditions: in vivo, 192 h
[12] = test system: Mus musculus; experiment: Toxicity in NOD/SCID mouse xenografted with human MV4-11 cells assessed as death at 50 mg/kg, ip q2d for 12 days; assay type: organism-based; conditions: in vivo, 288 h
[13] = test system: Mus musculus; experiment: Toxicity in Balb/c nude mouse xenografted with human HCT116 cells assessed as change in body weight at 100 mg/kg, po q2d for 8 days; assay type: organism-based, HCT-116; conditions: in vivo, 192 h
[14] = test system: Mus musculus; experiment: Toxicity in Balb/c nude mouse xenografted with human HCT116 cells assessed as change in body weight at 50 mg/kg, ip q2d for 9 days; assay type: organism-based, HCT-116; conditions: in vivo, 216 h
[15] = Antitumor activity against human HCT116 cells xenografted in Balb/c nude mouse assessed as tumor mass change at 50 mg/kg, ip q2d for 9 days; assay type: functional, HCT-116
[16] = test system: A549; experiment: Cytotoxicity against human A549 cells after 72 hrs by MTT assay; assay type: functional, cell-based; conditions: A549, 72 h
[17] = biological target: Histone deacetylase 5 (Homo sapiens, UniProt Q9UQL6); experiment: Inhibition of recombinant HDAC5 (unknown origin) using AMC labeled AC-peptide as substrate at 10 uM incubated for 1 hr by fluorescence analysis
[18] = biological target: Histone deacetylase 9 (Homo sapiens, UniProt Q9UKV0); experiment: Inhibition of recombinant HDAC9 (unknown origin) using AMC labeled AC-peptide as substrate at 10 uM incubated for 1 hr by fluorescence analysis
[19] = test system: Ramos; experiment: Cytotoxicity against human Ramos cells after 72 hrs by MTT assay; assay type: functional, cell-based
[20] = biological target: Histone deacetylase 1/2/3 (Homo sapiens) (UniProt Q13547+O15379+Q92769); conditions: MV4-11, 1000 nM
Description: Inhibition of HDAC1/2/3 in human MV4-11 cells assessed as upregulation of histone H3 acetylation at 1000 nM after 6 hrs by Western blot analysis

[21] = biological target: T3, Protein deacetylase HDAC6 (Homo sapiens) (UniProt Q9UBN7); experiment: Inhibition of HDAC6 in human HCT116 cells assessed as upregulation of alpha- tubulin acetylation after 6 hrs by Western blot analysis; assay type: cell-based; conditions: HCT-116
T3 sequence (whole entry): T1 sequence (Q9UBN7 whole entry)

[22] = test system: A2780; experiment: Cytotoxicity against human A2780 cells after 72 hrs by MTT assay; assay type: functional, cell-based; conditions: A2780, 72 h
[23] = Cytotoxicity against human RPMI8226 cells after 72 hrs by MTT assay; assay type: functional, cell-based; conditions: RPMI-8226, 72 h
[24] = test system: HT-29; experiment: Cytotoxicity against human HT-29 cells after 72 hrs by MTT assay; assay type: functional, cell-based; conditions: HT-29, 72 h
[25] = biological target: Histone deacetylase 11 (Homo sapiens) (UniProt Q96DB2); experiment: Inhibition of recombinant HDAC11 (unknown origin) using AMC labeled AC-peptide as substrate at 10 uM incubated for 1 hr by fluorescence analysis
[26] = test system: HepG2; experiment: Cytotoxicity against human HepG2 cells after 72 hrs by MTT assay; assay type: functional, cell-based; conditions: HepG2, 72 h
[27] = Cytotoxicity against human HCT116 cells after 72 hrs by MTT assay; assay type: functional, cell-based; conditions: HCT-116, 72 h
[28] = biological target: T3, Protein deacetylase HDAC6 (Homo sapiens); experiment: Inhibition of HDAC6 in human MV4-11 cells assessed as upregulation of alpha- tubulin acetylation after 6 hrs by Western blot analysis; assay type: cell-based
[29] = test system: Mus musculus; experiment: Toxicity in NOD/SCID mouse xenografted with human Ramos cells assessed as death at 40 mg/kg, po q2d for 6 days; assay type: organism-based; conditions: in vivo, 144 h
[30] = biological target: Histone deacetylase 7 (Homo sapiens) (UniProt Q8WUI4); experiment: Inhibition of recombinant HDAC7 (unknown origin) using AMC labeled AC-peptide as substrate at 10 uM incubated for 1 hr by fluorescence analysis
[31] = test system: K562; experiment: Cytotoxicity against human K562 cells after 72 hrs by MTT assay; assay type: functional, cell-based; conditions: K562, 72 h
[32] = Cytotoxicity against human SKOV3 cells after 72 hrs by MTT assay; assay type: functional, cell-based; conditions: SK-OV-3, 72 h
[33] = Cytotoxicity against human SKBR3 cells after 72 hrs by MTT assay; assay type: functional, cell-based; conditions: SK-BR-3, 72 h
[34] = Cytotoxicity against human U266 cells after 72 hrs by MTT assay; assay type: functional, cell-based; conditions: U-266, 72 h
[35] = Cytotoxicity against human H460 cells after 72 hrs by MTT assay; assay type: functional, cell-based; conditions: NCI-H460, 72 h
[36] = test system: MV4-11; experiment: Cytotoxicity against human MV4-11 cells after 72 hrs by MTT assay; assay type: functional, cell-based; conditions: MV4-11, 72 h

Histone deacetylase 1, sequence (Q13547 whole entry): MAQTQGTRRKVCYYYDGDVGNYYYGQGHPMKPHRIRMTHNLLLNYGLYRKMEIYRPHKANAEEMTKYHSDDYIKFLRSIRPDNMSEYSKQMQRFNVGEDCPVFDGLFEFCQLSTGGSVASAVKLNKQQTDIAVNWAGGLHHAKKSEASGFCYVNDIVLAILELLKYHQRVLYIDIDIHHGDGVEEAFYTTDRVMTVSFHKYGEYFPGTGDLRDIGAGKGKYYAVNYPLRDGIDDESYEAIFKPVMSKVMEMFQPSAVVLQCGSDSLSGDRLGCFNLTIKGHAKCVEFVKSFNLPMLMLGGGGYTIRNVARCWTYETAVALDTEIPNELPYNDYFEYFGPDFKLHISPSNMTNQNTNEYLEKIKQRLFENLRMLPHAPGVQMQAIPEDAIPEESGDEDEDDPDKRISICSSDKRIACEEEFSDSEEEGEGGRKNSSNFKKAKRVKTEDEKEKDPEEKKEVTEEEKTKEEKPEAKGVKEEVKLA
Histone deacetylase 5, sequence (Q9UQL6 whole entry): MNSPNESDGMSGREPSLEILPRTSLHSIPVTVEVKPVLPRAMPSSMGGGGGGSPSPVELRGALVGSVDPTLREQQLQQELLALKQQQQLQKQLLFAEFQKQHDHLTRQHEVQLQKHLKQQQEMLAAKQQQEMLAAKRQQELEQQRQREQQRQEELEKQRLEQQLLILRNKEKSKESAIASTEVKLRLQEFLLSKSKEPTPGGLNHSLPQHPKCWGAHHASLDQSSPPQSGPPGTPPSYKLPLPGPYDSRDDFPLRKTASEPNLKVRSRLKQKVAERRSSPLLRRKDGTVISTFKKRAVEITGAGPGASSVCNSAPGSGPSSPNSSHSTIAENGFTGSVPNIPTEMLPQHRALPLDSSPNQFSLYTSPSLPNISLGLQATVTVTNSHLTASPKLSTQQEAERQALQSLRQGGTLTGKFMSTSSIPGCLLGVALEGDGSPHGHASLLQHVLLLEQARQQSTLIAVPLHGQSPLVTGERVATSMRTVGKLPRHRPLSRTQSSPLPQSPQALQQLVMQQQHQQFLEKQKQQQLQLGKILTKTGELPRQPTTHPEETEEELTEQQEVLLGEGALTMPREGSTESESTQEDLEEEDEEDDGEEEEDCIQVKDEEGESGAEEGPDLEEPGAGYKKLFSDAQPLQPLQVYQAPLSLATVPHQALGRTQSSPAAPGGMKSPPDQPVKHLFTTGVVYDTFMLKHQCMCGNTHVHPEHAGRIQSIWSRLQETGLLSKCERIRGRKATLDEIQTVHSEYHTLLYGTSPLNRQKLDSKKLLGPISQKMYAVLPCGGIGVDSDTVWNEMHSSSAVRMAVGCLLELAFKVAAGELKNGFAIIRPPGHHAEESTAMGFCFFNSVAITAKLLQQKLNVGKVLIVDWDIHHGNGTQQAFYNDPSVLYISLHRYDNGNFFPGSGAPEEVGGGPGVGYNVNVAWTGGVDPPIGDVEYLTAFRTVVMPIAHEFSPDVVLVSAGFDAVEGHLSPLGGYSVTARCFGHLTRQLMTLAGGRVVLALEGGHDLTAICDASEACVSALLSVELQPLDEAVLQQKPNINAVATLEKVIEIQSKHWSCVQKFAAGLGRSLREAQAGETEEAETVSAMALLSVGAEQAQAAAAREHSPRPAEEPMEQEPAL
Histone deacetylase 9, sequence (Q9UKV0 whole entry): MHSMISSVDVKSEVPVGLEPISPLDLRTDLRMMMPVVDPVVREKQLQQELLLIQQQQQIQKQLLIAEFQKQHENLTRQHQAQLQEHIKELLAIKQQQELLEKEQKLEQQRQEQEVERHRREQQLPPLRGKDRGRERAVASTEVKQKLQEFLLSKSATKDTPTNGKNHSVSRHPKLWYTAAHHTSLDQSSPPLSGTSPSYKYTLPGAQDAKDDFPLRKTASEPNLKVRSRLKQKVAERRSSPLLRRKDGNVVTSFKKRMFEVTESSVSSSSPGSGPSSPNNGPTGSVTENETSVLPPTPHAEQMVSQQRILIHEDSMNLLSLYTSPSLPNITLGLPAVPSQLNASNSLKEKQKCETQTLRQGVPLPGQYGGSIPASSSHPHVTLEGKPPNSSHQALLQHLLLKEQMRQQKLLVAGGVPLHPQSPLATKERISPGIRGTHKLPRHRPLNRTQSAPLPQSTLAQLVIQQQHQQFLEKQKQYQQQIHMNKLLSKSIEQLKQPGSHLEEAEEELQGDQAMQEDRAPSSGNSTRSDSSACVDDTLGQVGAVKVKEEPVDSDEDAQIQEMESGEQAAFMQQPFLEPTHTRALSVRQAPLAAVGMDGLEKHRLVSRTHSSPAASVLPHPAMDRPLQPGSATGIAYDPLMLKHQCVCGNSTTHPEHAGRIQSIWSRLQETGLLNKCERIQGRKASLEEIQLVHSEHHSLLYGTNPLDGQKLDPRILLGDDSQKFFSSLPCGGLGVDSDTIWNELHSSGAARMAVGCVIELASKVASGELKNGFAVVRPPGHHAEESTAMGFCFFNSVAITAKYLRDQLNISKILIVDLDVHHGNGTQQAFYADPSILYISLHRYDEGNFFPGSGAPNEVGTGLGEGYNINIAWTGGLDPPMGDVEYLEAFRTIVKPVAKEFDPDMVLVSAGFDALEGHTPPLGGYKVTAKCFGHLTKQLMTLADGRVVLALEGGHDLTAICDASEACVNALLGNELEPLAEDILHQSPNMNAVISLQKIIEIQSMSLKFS
Histone deacetylase 11 (Homo sapiens), sequence (Q96DB2 whole entry): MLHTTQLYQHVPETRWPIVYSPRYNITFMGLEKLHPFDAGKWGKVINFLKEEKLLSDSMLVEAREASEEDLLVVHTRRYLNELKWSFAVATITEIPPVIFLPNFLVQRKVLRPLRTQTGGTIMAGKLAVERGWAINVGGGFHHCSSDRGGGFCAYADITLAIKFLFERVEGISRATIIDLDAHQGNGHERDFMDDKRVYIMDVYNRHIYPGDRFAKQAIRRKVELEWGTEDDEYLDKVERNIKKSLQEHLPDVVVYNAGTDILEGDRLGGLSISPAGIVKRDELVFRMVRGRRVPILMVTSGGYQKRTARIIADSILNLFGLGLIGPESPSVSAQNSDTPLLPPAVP
Histone deacetylase 7 (Homo sapiens), sequence (Q8WUI4 whole entry): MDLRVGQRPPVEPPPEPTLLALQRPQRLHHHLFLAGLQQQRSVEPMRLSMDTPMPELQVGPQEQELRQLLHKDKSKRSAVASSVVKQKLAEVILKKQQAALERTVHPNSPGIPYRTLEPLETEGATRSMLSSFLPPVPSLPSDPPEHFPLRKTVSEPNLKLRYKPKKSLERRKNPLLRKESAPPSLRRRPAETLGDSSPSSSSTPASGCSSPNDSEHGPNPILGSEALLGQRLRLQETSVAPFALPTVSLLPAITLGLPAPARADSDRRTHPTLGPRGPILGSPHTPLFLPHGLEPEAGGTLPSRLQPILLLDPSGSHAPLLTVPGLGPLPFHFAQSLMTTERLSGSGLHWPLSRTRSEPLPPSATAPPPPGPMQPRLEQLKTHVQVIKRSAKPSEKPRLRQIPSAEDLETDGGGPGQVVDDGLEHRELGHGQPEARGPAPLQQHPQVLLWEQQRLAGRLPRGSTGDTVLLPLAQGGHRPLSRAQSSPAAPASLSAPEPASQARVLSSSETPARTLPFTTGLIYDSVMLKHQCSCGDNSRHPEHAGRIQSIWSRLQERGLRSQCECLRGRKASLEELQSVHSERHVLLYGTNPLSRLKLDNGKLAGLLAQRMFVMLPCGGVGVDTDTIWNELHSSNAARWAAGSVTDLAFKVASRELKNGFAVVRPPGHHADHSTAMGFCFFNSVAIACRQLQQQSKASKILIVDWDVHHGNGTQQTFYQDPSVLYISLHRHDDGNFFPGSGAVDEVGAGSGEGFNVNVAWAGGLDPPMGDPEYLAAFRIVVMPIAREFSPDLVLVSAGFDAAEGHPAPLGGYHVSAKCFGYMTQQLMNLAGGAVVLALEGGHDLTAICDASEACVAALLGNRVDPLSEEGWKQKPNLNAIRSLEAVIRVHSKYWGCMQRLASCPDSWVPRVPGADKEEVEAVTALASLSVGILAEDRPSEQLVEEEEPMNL

**Q.** With `Cc1nc(N(C)c2cccc(OCCCC(=O)NO)c2)c2ccccc2n1` as the compound, how does the IC50 [1] read?
**A.** > 1 µM

**Q.** And the IC50 [2]?
**A.** > 1 µM

**Q.** And the IC50 [3]?
**A.** > 1 µM

**Q.** Which results are given for `CN(c1ccc(OCC(=O)NO)cc1)c1ncnc2ccccc12`?
**A.** EC50 [4]: 1.26 µM; IC50 [5]: 0.379 µM; IC50 [6]: 0.432 µM; EC50 [7]: 0.0494 µM; IC50 [1]: 0.014 µM; IC50 [2]: 1.42 µM; IC50 [3]: 0.242 µM

**Q.** Which results are given for `O=C(CCCCCCC(=O)Nc1ccccc1)NO` [VORINOSTAT]?
**A.** Activity [8]: Non-toxic; Activity [9]: 0%; Activity [10]: 59.2%; Activity [11]: Non-toxic; Activity [12]: Non-toxic; Activity [13]: -6.1%; Activity [14]: -3%; Activity [15]: 36.6%

**Q.** For `COc1ccc(Nc2nc(C)nc3ccccc23)cc1OCCCC(=O)NO`, which IC50 [1] is on record?
**A.** > 1 µM

**Q.** And the IC50 [2]?
**A.** > 1 µM

**Q.** What about the IC50 [3] of the same compound?
**A.** > 1 µM

**Q.** Which results are given for `Cc1nc2c(c(N(C)c3ccc(OCC(=O)NO)cc3)n1)CCC2`?
**A.** EC50 [4]: 1.77 µM; IC50 [5]: 2.22 µM; IC50 [6]: 2.85 µM; EC50 [7]: 0.0508 µM; IC50 [1]: 0.017 µM; IC50 [2]: 2.97 µM; IC50 [3]: 0.264 µM

**Q.** What does the source list for `COc1ccc(N(C)c2nc(C)nc3ccccc23)cc1OCCCCCC(=O)NO`?
**A.** IC50 [1]: 0.023 µM; IC50 [2]: 1.53 µM; IC50 [3]: 0.16 µM

**Q.** With `COc1ccc(N(C)c2nc(C)nc3ccccc23)cc1OCCCCC(=O)NO` as the compound, how does the IC50 [1] read?
**A.** 0.111 µM

**Q.** What about the IC50 [3] of the same compound?
**A.** 0.253 µM

**Q.** With `O=C(CCCCCCNC(=O)c1cnc(N(c2ccccc2)c2ccccc2)nc1)NO` [RICOLINOSTAT] as the compound, how does the IC50 [16] read?
**A.** > 5 µM

**Q.** And the inhibition [17]?
**A.** inactive

**Q.** What about the inhibition [18] of the same compound?
**A.** inactive

**Q.** What about the IC50 [19] of the same compound?
**A.** > 5 µM

**Q.** And the inhibition [20]?
**A.** Active

**Q.** What about the inhibition [21] of the same compound?
**A.** Dose-dependent effect

**Q.** What about the IC50 [22] of the same compound?
**A.** > 5 µM

**Q.** What about the IC50 [5] of the same compound?
**A.** > 5 µM

**Q.** What about the IC50 [23] of the same compound?
**A.** 1.47 µM

**Q.** And the IC50 [24]?
**A.** > 5 µM

**Q.** What about the inhibition [25] of the same compound?
**A.** inactive

**Q.** And the IC50 [26]?
**A.** > 5 µM

**Q.** And the IC50 [27]?
**A.** > 5 µM

**Q.** What about the inhibition [28] of the same compound?
**A.** Dose-dependent effect

**Q.** What about the Activity [29] of the same compound?
**A.** Non-toxic

**Q.** What about the inhibition [30] of the same compound?
**A.** inactive

**Q.** And the IC50 [31]?
**A.** > 5 µM

**Q.** What about the IC50 [32] of the same compound?
**A.** > 5 µM

**Q.** What about the IC50 [33] of the same compound?
**A.** > 5 µM

**Q.** What about the IC50 [34] of the same compound?
**A.** > 5 µM

**Q.** What about the IC50 [35] of the same compound?
**A.** > 5 µM

**Q.** What about the IC50 [36] of the same compound?
**A.** > 5 µM

**Q.** For `Cc1nc2c(c(N(C)c3ccc(OCCCC(=O)NO)cc3)n1)CCC2`, which IC50 [1] is on record?
**A.** 0.04 µM

**Q.** And the IC50 [2]?
**A.** 6.19 µM

**Q.** And the IC50 [3]?
**A.** 0.195 µM
